According to ChEMBL document CHEMBL1201862, “PubChem BioAssay data set” (2004):
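Five compound concentrations were applied to cells in 96-well plates for 48 hours; endpoints were derived by simple linear interpolation of the resulting dose-response curve. The concentration for 50% growth inhibition is given as GI50.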 Calls of active or inactive are those of the source. Rule as the data show it: active = GI50 up to about 1.1 µM and inactive = higher.

Key:
Assay in all cases: NCI tumour cell line growth inhibition, 48 h
[1] = system: IGROV-1
[2] = system: Hs-578T
[3] = system: SK-MEL-2
[4] = system: OVCAR-3
[5] = system: MDA-N
[6] = system: DU-145
[7] = system: CCRF-CEM
[8] = system: 786-0
[9] = system: U-251
[10] = system: MCF7
[11] = system: SK-MEL-5
[12] = system: SF-295
[13] = system: OVCAR-5
[14] = system: Malme-3M
[15] = system: SF-539
[16] = system: HT-29
[17] = system: UACC-257
[18] = system: HCC 2998
[19] = system: BT-549
[20] = system: MDA-MB-435

SMILES: Cc1c2ccncc2c(C)c2c1sc1ccccc12
- GI50 [1]: 5.94 µM (inactive)
- GI50 [2]: 13.6 µM (inactive)
- GI50 [3]: 21 µM (inactive)
- GI50 [4]: 14.6 µM (inactive)
- GI50 [5]: 13.1 µM (inactive)
- GI50 [6]: 13.3 µM (inactive)
- GI50 [7]: 3.31 µM (inactive)
- GI50 [8]: 4.86 µM (inactive)
- GI50 [9]: 10.8 µM (inactive)
- GI50 [10]: 1.84 µM (inactive)
- GI50 [11]: 7.87 µM (inactive)
- GI50 [12]: 10.1 µM (inactive)
- GI50 [13]: 21 µM (inactive)
- GI50 [14]: 10.8 µM (inactive)
- GI50 [15]: 6.73 µM (inactive)
- GI50 [16]: 6.1 µM (inactive)
- GI50 [17]: 19.3 µM (inactive)
- GI50 [18]: 11.8 µM (inactive)
- GI50 [19]: 16.7 µM (inactive)
- GI50 [20]: 15 µM (inactive)

SMILES: Cc1cc(OC2OC(CO)C(O)C(O)C2O)ccc1O (stereo not given)
- GI50 [1]: > 100 µM (inactive)
- GI50 [2]: > 100 µM (inactive)
- GI50 [3]: > 100 µM (inactive)
- GI50 [4]: > 100 µM (inactive)
- GI50 [5]: > 100 µM (inactive)
- GI50 [6]: > 10 µM (inactive)
- GI50 [7]: > 100 µM (inactive)
- GI50 [8]: > 100 µM (inactive)
- GI50 [9]: > 100 µM (inactive)
- GI50 [10]: > 100 µM (inactive)
- GI50 [11]: > 100 µM (inactive)
- GI50 [12]: > 100 µM (inactive)
- GI50 [13]: > 100 µM (inactive)
- GI50 [14]: > 100 µM (inactive)
- GI50 [15]: > 100 µM (inactive)
- GI50 [16]: > 100 µM (inactive)
- GI50 [17]: > 100 µM (inactive)
- GI50 [18]: > 100 µM (inactive)
- GI50 [19]: > 100 µM (inactive)
- GI50 [20]: > 100 µM (inactive)

SMILES: COc1cc2c(cc1O)CCN[C@@]21CS[C@H]2c3c(OC(C)=O)c(C)c4c(c3C(COC1=O)N1C2C2c3c(cc(C)c(OC)c3O)CC([C@@H]1O)N2C)OCO4 (stereo not given in full)
- GI50 [1]: < 0.0001 µM (active)
- GI50 [2]: < 0.0001 µM (active)
- GI50 [3]: < 0.0001 µM (active)
- GI50 [4]: < 0.0001 µM (active)
- GI50 [5]: < 0.0001 µM (active)
- GI50 [6]: < 0.0001 µM (active)
- GI50 [7]: < 0.0001 µM (active)
- GI50 [8]: 0.0001 µM (active)
- GI50 [9]: 0.0001 µM (active)
- GI50 [10]: < 0.0001 µM (active)
- GI50 [11]: < 0.0001 µM (active)
- GI50 [12]: < 0.0001 µM (active)
- GI50 [13]: 0.0001 µM (active)
- GI50 [14]: < 0.0001 µM (active)
- GI50 [15]: < 0.0001 µM (active)
- GI50 [16]: 0.00128 µM (active)
- GI50 [17]: < 0.0001 µM (active)
- GI50 [18]: 0.0001 µM (active)
- GI50 [19]: 0.00181 µM (active)
- GI50 [20]: < 0.0001 µM (active)

SMILES: CC(=O)Nc1sc([N+](=O)[O-])cc1S(=O)(=O)c1ccc(Cl)cc1
- GI50 [1]: 4.69 µM (inactive)
- GI50 [2]: 3.56 µM (inactive)
- GI50 [3]: 0.92 µM (active)
- GI50 [4]: 2.32 µM (inactive)
- GI50 [5]: 3.92 µM (inactive)
- GI50 [6]: 3.3 µM (inactive)
- GI50 [7]: 8.2 µM (inactive)
- GI50 [8]: 4.66 µM (inactive)
- GI50 [9]: 4.22 µM (inactive)
- GI50 [10]: 2.86 µM (inactive)
- GI50 [11]: 1.12 µM (active)
- GI50 [12]: 2.14 µM (inactive)
- GI50 [13]: 4.7 µM (inactive)
- GI50 [14]: 2.48 µM (inactive)
- GI50 [15]: 3.18 µM (inactive)
- GI50 [16]: 3.13 µM (inactive)
- GI50 [17]: 2.64 µM (inactive)
- GI50 [18]: 2.04 µM (inactive)
- GI50 [19]: 3.64 µM (inactive)
- GI50 [20]: 3.3 µM (inactive)
